Key:
hTAAR1 = molecular target: T1, hTAAR1 (Homo sapiens, UniProt Q96RJ0); assay: hTAAR1 functional assay (cAMP); assay type: cell-based; conditions: for EC50: read-out: hTAAR1 EC50 (mean ± SEM (n)); for Emax: read-out: hTAAR1 Emax (mean ± SEM (n))
T1 construct: expressed in transfected cells; host or cells: recombinant cells
T1 sequence (Q96RJ0 1-339): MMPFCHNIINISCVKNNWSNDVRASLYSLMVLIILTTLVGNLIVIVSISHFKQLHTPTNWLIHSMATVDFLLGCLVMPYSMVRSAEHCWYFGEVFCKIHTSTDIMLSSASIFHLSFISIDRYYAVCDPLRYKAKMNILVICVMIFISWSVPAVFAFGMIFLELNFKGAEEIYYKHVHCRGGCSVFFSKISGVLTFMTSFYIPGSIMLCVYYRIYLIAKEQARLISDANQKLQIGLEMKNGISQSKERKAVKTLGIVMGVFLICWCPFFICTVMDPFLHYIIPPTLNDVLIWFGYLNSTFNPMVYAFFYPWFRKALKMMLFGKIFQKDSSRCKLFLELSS
Procedure: EC50 and Erna, values are reported for these compounds in Table 1.
A GPCR cAMP Modulation Assay can be used to determine whether a compound can be considered an agonist or antagonist.
cAMP Hunter cell lines were expanded from freezer stocks according to standard procedures. Cells were seeded into white walled, 384-well microplates in a total volume of 20 μL and incubated at 37° C. prior to testing. cAMP modulation was determined using a DiscoverX HitHunter cAMP XS+assay.
To determine whether a compound would be considered an agonist, cells were incubated with a test compound to induce a response. Media was aspirated from cells and replaced with 15 μL, 2:1 HBSS/10mM Hepes: cAMP XS+Ab reagent. Sample stocks were diluted immediately to generate a 4X sample in assay buffer. 5 μL of the 4X sample was added to cells and incubated at room temperature or 37° C. for 30 or 60 minutes. Final assay vehicle concentration was 1%.
After appropriate compound incubation, assay signal was generated by incubation with […] cAMP XS+ED/CL lysis cocktail for one hour followed, which was followed with room temperature incubation with […] cAMP XS+EA reagent for three hours. Microplates were read following signal generation with a PerkinElmer Envision^Tm instrument for chemiluminescent signal detection.
CBIS data analysis suite (ChemInnovation, CA) was used to analyze compound activity. RLU stands for relative light units.
For Gs agonist mode assays, percent activity was calculated using the following formula: […]

Sprague-Dawley rats [1] = assay: SNL-induced mechanical hyperalgesia model (paw pressure test, PWT); assay type: in vivo, rat; conditions: for minimum effective dose (MED): 1 hour prior to testing
Procedure: Surgery is performed under isoflurane/O, inhalation anesthesia. Following induction of anesthesia, a 3 centimeter incision is made and the left paraspinal muscles are separated from the spinous process at the L4-S2 levels. The L6 transverse process is carefully removed with a pair of small rongeurs to identify visually the L4-L6 spinal nerves. The left L5 (or L5 and L6) spinal nerve(s) is isolated and tightly ligated with silk thread. A complete hemostasis is confirmed and the wound is sutured using non-absorbable sutures, such as nylon sutures or stainless steel staples. Sham-rats undergo an identical surgical procedure except that the spinal nerve(s) is not manipulated. Following surgery animals are weighed, administered a subcutaneous (SC) injection of saline or ringers lactate, the wound area is dusted with antibiotic powder and they are kept on a warm pad until they recover from the anesthesia. Animals are then returned to their home cages until behavioral testing begins (i.e., 3-4 weeks post-surgery). The animals are assessed for their response to either a noxious or non-noxious stimuli, described below, prior to surgery (baseline), then 1, 3, and 5 hours after being administered a compound of the present disclosure 3 or 4 weeks post-surgery.
Hyperalgesia: The paw pressure assay can be used to assess mechanical hyperalgesia. Sensitivity to noxious mechanical stimuli is measured in animals using the paw pressure test to assess mechanical hyperalgesia. In rats, hind paw withdrawal thresholds (“PWT”), measured in grams, in response to a noxious mechanical stimulus are determined using an analgesymeter (Model 7200, commercially available from Ugo Basile of Italy), as described in C. Stein, “Unilateral Inflammation of the Hindpaw in Rats as a Model of Prolonged Noxious Stimulation: Alterations in Behavior and Nociceptive Thresholds,” Pharmacol. Biochem. and Behavior 31:451-455 (1988). The rat is gently restrained, its hindpaw is placed on a small round platform, and punctate pressure is applied to the dorsal surface of the hindpaw in a graded manner. The maximum weight that is applied to the hind paw is set at 250 grams and the end point is taken as complete withdrawal of the paw. PWT is determined once for each rat at each time point and either only the affected (ipsilateral; same side as the injury) rear paw is tested, or both the ipsilateral and contralateral (non-injured; opposite to the injury) rear paw are tested. Rats are tested prior to surgery or FCA administration to determine a baseline, or normal, PWT. Rats are tested again 3-4 weeks post-surgery or 24 hours post-FCA injection and at different times after (e.g., 1, 3, and 5 hours) compound or vehicle administration. A sham control is also implemented to determine the PWT of a rat having neither surgery nor compound administration.
Representative agonists and partial agonists of the present disclosure are tested in the spinal nerve ligation (“SNL”)-induced mechanical hyperalgesia model in male, Sprague-Dawley rats. Sensitivity to noxious mechanical stimuli is measured in animals using the paw pressure test to assess mechanical hyperalgesia. In rats, hind paw withdrawal thresholds (“PWT”), measured in grams, in response to a noxious mechanical stimulus are determined using an analgesymeter (Model 7200, commercially available from Ugo Basile of Italy), as described in C. Stein, “Unilateral Inflammation of the Hindpaw in Rats as a Model of Prolonged Noxious Stimulation: Alterations in Behavior and Nociceptive Thresholds,” Pharmacol. Biochem. & Behavior 31:451-455 (1988). Briefly, the rat's paw is placed on a small platform, and weight is applied in a graded manner up to a maximum of 250 grams. The endpoint is taken as the weight at which the paw is completely withdrawn. PWT is determined once for each rat at each time point. PWT is measured only in the injured paw. Rats are tested prior to surgery to determine a baseline, or normal, PWT. […]

[2] = tested on: 254 bp β-arresting KO rats; assay: SNL-induced mechanical hyperalgesia in 254 bp β-arresting KO rats; assay type: in vivo, rat; conditions: IP dosing, achieved at 1 hour
1276 bp GRK5 KO rats = assay: SNL-induced mechanical hyperalgesia in 1276 bp GRK5 KO rats; assay type: in vivo, rat; conditions: IP dosing, achieved at 3 hours
Sprague-Dawley rats [3] = assay: Rotarod performance; assay type: in vivo, rat; conditions: IP at 30 mg/kg, 1 hour post dosing
Procedure: The Rotarod test is used to evaluate motor coordination, strength, and balance. The animals are placed on the rotating rod of the device. The time during which an animal can maintain itself on said bar at an accelerating speed of 5-40 rpm is recorded. 300 seconds is the assay cut-off. Data are analyzed by a two-way ANOVA using a Bonferroni Multiple Comparisons test. […] In the experiment, male, Sprague-Dawley rats, 211-241 g (n=10/group) were tested on an accelerating rotarod (AccuScan; manual 5-40 rpm).

Sprague-Dawley rats [4] = assay: Tail flick test (nociceptive pain); assay type: in vivo, rat; conditions: positive control, administered subcutaneously one hour prior to testing

With `NC1=N[C@@H](CCc2ccc(NC(=O)c3ccc(Cl)cc3)cc2)CO1` the EC50 (hTAAR1) was 8.53 ± 0.25 nM and the Emax (hTAAR1) was 42.7 ± 3%.
For `Cc1c(F)cccc1[C@H]1COC(N)=N1`, the EC50 (hTAAR1) was 13.7 ± 5.01 nM and the Emax (hTAAR1) was 68.7 ± 3%.
With `O=C(Nc1ccc(C2CCNC2)cc1)Nc1ccc(Cl)cn1` (stereo not drawn) the EC50 (hTAAR1) was 54.5 ± 18.6 nM and the Emax (hTAAR1) was 80.9 ± 3%.
In the case of `NC1=N[C@@H](c2ccc(Cl)c(Cl)c2)CO1`, the Emax (hTAAR1) is reported as 35.5 ± 3%.
Work on `Clc1ccc(Nc2ccc(C3CNCCO3)nc2)cc1` (stereo not drawn) yielded an EC50 (hTAAR1) of 123 ± 9.99 nM and an Emax (hTAAR1) of 56.1 ± 7.5%.
`NC1CCc2cc(NC(=O)c3ccnc(C(F)(F)F)c3)ccc2C1` (stereo not drawn) was tested, and the “hTAAR1 Emax (mean ± SEM (n))” value (hTAAR1) was 85.8 ± 3.0% (2.8) and the EC50 (hTAAR1) was 163 nM.
Compound `O=C(Nc1ccc(C2CCNC2)cc1)c1ccc(Cl)cn1` (stereo not drawn) has an EC50 (hTAAR1) of 475 ± 50.1 nM and an Emax (hTAAR1) of 73.5 ± 3%.
For `CC(C)n1nc(OCC(F)(F)F)cc1C(=O)Nc1ccc(C2OC3CN[C@H]2C3)cc1` (stereo partly drawn), the “hTAAR1 Emax (mean ± SEM (n))” value (hTAAR1) was 66.6 ± 14.9% (3) and the EC50 (hTAAR1) was 519 nM.
`O=C(Nc1ccc(C2O[C@@H]3CN[C@H]2C3)cc1)c1ccc(Cl)cc1` (stereo partly drawn) was tested, and the “hTAAR1 Emax (mean ± SEM (n))” value (hTAAR1) was 29.7 ± 14.2% (3) and the EC50 (hTAAR1) was 7210 nM.
Compound `CCOc1cccc(NC(=O)c2ccc(N3CCCC3)c(C(F)(F)F)c2)c1` has an EC50 (hTAAR1) greater than 10000 nM and an Emax (hTAAR1) of 6.1 ± 3%.
With `CC(C)N(Cc1c[nH]cn1)c1ccc(Cl)cc1` [Compound 1, N-((1H-imidazol-4-yl)methyl)-4-chloro-N-isopropylaniline] the “maximum reversal of SNL-induced mechanical hyperalgesia” value (shortened to “maximum reversal”) (Sprague-Dawley rats [1]; IP dosing, achieved at 3 hours) was 41%, the “minimum effective dose (MED)” value (Sprague-Dawley rats [1]; PO dosing) was less than 3 mg/kg and the “maximum reversal” value (Sprague-Dawley rats [1]; PO dosing, achieved at 3 hours) was 69%.
In the case of `CCN(CC1COC(N)=N1)c1ccccc1` (stereo not drawn) [Compound 2, 4-((ethyl(phenyl)amino)methyl)-4,5-dihydrooxazol-2-amine], the “minimum effective dose (MED)” value (Sprague-Dawley rats [1]; IP dosing) is reported as less than 1 mg/kg, the “maximum reversal” value (Sprague-Dawley rats [1]; IP dosing, achieved at 3 hours) is reported as 76% and the “minimum effective dose (MED)” value (Sprague-Dawley rats [1]; PO dosing) is reported as 10 mg/kg. For the same compound, the “maximum reversal” value (Sprague-Dawley rats [1]; PO dosing, achieved at 3 hours) was 22%, the “maximum reversal” value [2] was 43% and the “maximum reversal” value (1276 bp GRK5 KO rats) was 61%. For the same compound, the “rotarod performance (motor performance)” value (Sprague-Dawley rats [3]) was “produced deficits in motor performance”.
For `NC1=NC(c2ccc(Cl)c(Cl)c2)CO1` (stereo not drawn) [Compound 3, 4-(3,4-dichlorophenyl)-4,5-dihydrooxazol-2-amine], the “minimum effective dose (MED)” value (Sprague-Dawley rats [1]; IP dosing) was 3 mg/kg, the “maximum reversal” value (Sprague-Dawley rats [1]; IP dosing, achieved at 3 hours) was 56% and the “minimum effective dose (MED)” value (Sprague-Dawley rats [1]; PO dosing) was 10 mg/kg. For the same compound, the “maximum reversal” value (Sprague-Dawley rats [1]; PO dosing, achieved at 1 hour) was 23%.
`CCN(CC1COC(N)=N1)c1ccccc1` (stereo not drawn) [drawing 40] showed an EC50 (hTAAR1) of 92 ± 10.9 nM and an Emax (hTAAR1) of 81.7 ± 3%.
For `CN1CC[C@]23c4c5ccc(O)c4O[C@H]2[C@@H](O)C=C[C@H]3[C@H]1C5` [morphine], the “analgesic efficacy in the tail flick assay” value (Sprague-Dawley rats [4]) was “robust analgesic efficacy”.

— patent US20220280527A1, “TRACE AMINE ASSOCIATED RECEPTOR 1 AGONISTS AND PARTIAL AGONISTS FOR PAIN TREATMENT” (Purdue Pharma L.P., priority 2016, published 2022)
